# Source: PMC6155608, “Substitution at the C-3 Position of Catechins Has an Influence on the Binding Affinities against Serum Albumin” (Molecules : A Journal of Synthetic Chemistry and Natural …, 2017)
# Key:
# [1] = molecular target: T1, bovine serum albumin (BSA) (Bos taurus, UniProt P02769); assay: Trp fluorescence quenching of BSA (Stern–Volmer analysis); format: binding; design: Kq value (Stern–Volmer quenching constant) against BSA: unit not given here; conditions: 0.3 mg/mL BSA; for Kq value (Stern–Volmer quenching constant) against BSA: 20 °C, 50 mM sodium phosphate buffer pH 7.0, excitation 280 nm, means ± SE
# T1 construct: BSA (F-V) and HSA (F-V) were purchased from Nacalai Tesque (Kyoto, Japan); purchased Nacalai Tesque (Kyoto, Japan)
# T1 sequence (P02769 25-607): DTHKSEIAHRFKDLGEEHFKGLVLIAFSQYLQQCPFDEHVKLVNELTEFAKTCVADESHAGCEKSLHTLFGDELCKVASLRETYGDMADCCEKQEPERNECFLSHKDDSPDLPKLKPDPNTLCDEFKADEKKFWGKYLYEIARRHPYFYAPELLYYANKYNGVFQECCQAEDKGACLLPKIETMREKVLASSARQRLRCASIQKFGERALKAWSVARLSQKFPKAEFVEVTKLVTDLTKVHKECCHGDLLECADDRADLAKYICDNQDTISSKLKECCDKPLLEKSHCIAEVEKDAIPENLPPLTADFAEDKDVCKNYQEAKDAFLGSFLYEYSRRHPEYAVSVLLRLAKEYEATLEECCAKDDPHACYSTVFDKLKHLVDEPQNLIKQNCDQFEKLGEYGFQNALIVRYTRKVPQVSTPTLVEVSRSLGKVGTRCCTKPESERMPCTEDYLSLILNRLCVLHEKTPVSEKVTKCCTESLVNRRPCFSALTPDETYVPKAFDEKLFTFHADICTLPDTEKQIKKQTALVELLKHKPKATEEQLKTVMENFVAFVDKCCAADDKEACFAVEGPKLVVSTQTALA
# Description: The fluorescence spectra of another natural catechin was also measured (data not shown).
# From the data obtained by fluorescence analysis, the Stern–Volmer quenching constants (Kq values) were calculated by the Stern–Volmer relationship.
# (§1) Analysis of fluorescence quenching was performed as described previously. A series of mixtures was prepared with catechins or their derivatives at various concentrations (as indicated in each figure legend) and a fixed concentration of BSA (0.3 mg/mL). After the mixture was incubated at 20 °C for 20 min, the fluorescence spectrum of BSA in the mixture was measured at 20 °C in 50 mM sodium phosphate buffer (pH 7.0) at an excitation wavelength of 280 nm and with emission in the range 290–450 nm. All measurements were performed in triplicate. Fluorescence quenching data were analyzed by the Stern–Volmer equation (Equation (1)): F0 = F (1 + Kq × Q),(1) where F0 and F are the relative fluorescence intensities of BSA without and with catechin, respectively, Kq is the Stern–Volmer quenching constant, and Q is the concentration of catechin.
# [2] = molecular target: T2, human serum albumin (HSA) (Homo sapiens, UniProt P02768); assay: Trp fluorescence quenching of HSA (Stern–Volmer analysis); format: binding; design: unit not given here; conditions: 0.3 mg/mL HSA, excitation 280 nm; means ± SE
# T2 construct: BSA (F-V) and HSA (F-V) were purchased from Nacalai Tesque (Kyoto, Japan); purchased Nacalai Tesque (Kyoto, Japan)
# T2 sequence (P02768 25-609): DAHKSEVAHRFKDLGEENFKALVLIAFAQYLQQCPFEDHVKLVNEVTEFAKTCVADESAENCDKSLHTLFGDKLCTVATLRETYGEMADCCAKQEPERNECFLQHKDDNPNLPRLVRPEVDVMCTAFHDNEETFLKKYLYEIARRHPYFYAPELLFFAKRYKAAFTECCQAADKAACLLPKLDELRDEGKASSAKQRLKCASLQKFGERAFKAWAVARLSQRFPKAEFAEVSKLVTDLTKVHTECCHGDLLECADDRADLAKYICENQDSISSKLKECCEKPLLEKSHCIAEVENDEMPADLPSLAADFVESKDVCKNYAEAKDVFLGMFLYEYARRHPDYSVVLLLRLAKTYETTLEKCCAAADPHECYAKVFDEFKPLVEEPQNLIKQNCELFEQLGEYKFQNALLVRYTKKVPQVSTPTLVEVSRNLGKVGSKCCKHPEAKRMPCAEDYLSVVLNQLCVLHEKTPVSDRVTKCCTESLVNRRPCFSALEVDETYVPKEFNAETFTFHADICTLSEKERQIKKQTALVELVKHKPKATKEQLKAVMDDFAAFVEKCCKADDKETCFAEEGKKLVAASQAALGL
# Description: Finally, we investigated the interaction between HSA and catechins and their derivatives (Figure 6). HSA has one Trp residue (Trp-214) located in drug-binding site I, and this residue behaves similarly to the Trp-213 of BSA [22]. […] Moreover, shift of the fluorescence peak wavelength against HSA was weaker than that against BSA.
# as §1
Compound,Kq value (Stern–Volmer quenching constant) against BSA [1],Kq value (Stern–Volmer quenching constant) against HSA [2],effect on fluorescence intensity of Trp residues of BSA ([1]; excitation 280 nm),shift of fluorescence peak wavelength of BSA ([1]; excitation 280 nm)
"Oc1cc(O)c2c(c1)O[C@H](c1ccc(O)c(O)c1)[C@@H](O)C2 [(+)-C, catechin]",0.005 ± 0.0003,0.002 ± 0.0001,–,–
"Oc1cc(O)c2c(c1)O[C@H](c1ccc(O)c(O)c1)[C@H](O)C2 [(−)-EC, epicatechin]",0.005 ± 0.0011,0.006 ± 0.0013,–,–
"O=C(O[C@H]1Cc2c(O)cc(O)cc2O[C@@H]1c1ccc(O)c(O)c1)c1cc(O)c(O)c(O)c1 [Cg, (−)-catechin gallate]",0.034 ± 0.0092,0.011 ± 0.0011,–,–
Oc1cc(O)c2c(c1)O[C@H](c1cc(O)c(O)c(O)c1)[C@H](O)C2 [EGC],0.001 ± 0.0003,0.001 ± 0.0002,–,–
Oc1cc(O)c2c(c1)O[C@H](c1cc(O)c(O)c(O)c1)[C@@H](O)C2 [GC],0.001 ± 0.0001,0.001 ± 0.0001,–,–
"COc1cc(C(=O)O[C@@H]2Cc3c(O)cc(O)cc3O[C@@H]2c2cc(O)c(O)c(O)c2)cc(O)c1O [Methyl-EGCg, epigallocatechin-3-O-methyl gallate]",0.150 ± 0.0109,0.014 ± 0.0021,–,–

# The remaining lines, values ahead:
Kq value (Stern–Volmer quenching constant) against BSA [1],Kq value (Stern–Volmer quenching constant) against HSA [2],effect on fluorescence intensity of Trp residues of BSA ([1]; excitation 280 nm),shift of fluorescence peak wavelength of BSA ([1]; excitation 280 nm),Compound
0.060 ± 0.0118,0.007 ± 0.0011,–,–,O=C(O[C@@H]1Cc2c(O)cc(O)cc2O[C@@H]1c1ccc(O)c(O)c1)c1cc(O)c(O)c(O)c1 [ECg]
0.225 ± 0.0192,0.033 ± 0.0065,decreased in a dose-dependent manner,red-shifted,"O=C(O[C@@H]1Cc2c(O)cc(O)cc2O[C@@H]1c1cc(O)c(O)c(O)c1)c1cc(O)c(O)c(O)c1 [EGCg, (−)-epigallocatechin gallate]"
0.019 ± 0.0030,0.009 ± 0.0008,–,–,O=C(O[C@H]1Cc2c(O)cc(O)cc2O[C@@H]1c1cc(O)c(O)c(O)c1)c1cc(O)c(O)c(O)c1 [GCg]
